These results are taken from ChEMBL document CHEMBL1201862, “PubChem BioAssay data set” (2004).

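Following 48 hours of exposure in 96-well plates, responses at five concentrations were used to interpolate endpoints linearly. At the GI50, growth is halved.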 The source made the active and inactive calls. No stated cut-off is given here; in the data, active = GI50 up to about 1.1 µM and inactive = higher.

Among the test systems are LOX IMVI; KM12; M14; HCC 2998; HOP-62; COLO 205; SF-295; UO-31; SK-MEL-5; CCRF-CEM; SK-MEL-28; CAKI-1; RPMI-8226; NCI-H226; NCI-H23; SNB-19.
Holding throughout (assay): NCI anticancer screen, dose series, 48 h

For the compound `CCOC(=O)N1C2C=C(C)C(C3C(C)C(=O)N31)N(C(=O)c1ccccc1)O2` (configuration not stated), the GI50 in the assay with LOX IMVI, with KM12, in the assay on M14, in the assay on HCC 2998, in the assay on HOP-62 and in the assay on COLO 205 was > 100 µM (inactive) throughout. Also, the GI50 in the assay with SF-295, in the assay with UO-31, in the assay with SK-MEL-5, in the assay with CCRF-CEM, in the assay on SK-MEL-28 and in the assay on CAKI-1 was > 100 µM (inactive) in each case. Further, the GI50 in the assay with RPMI-8226, in the assay with NCI-H226, with NCI-H23 and in the assay on SNB-19 was > 100 µM (inactive) each time.

On to `COC(=O)Cc1nc2ccccc2o1`, for which the GI50 is 66.5 µM (inactive) with KM12; 51.6 µM (inactive) with M14; 88.5 µM (inactive) in the assay on HCC 2998; > 100 µM (inactive) in the assay on HOP-62; 95.1 µM (inactive) in the assay on COLO 205; 41.1 µM (inactive) in the assay with SF-295. Further, the GI50 in the assay on UO-31 is > 100 µM (inactive); with SK-MEL-5 it was 50.8 µM (inactive); in the assay on CCRF-CEM, 44.3 µM (inactive); in the assay on SK-MEL-28, > 100 µM (inactive); in the assay with CAKI-1 it was 37.9 µM (inactive); in the assay on RPMI-8226, 17.8 µM (inactive). In addition, the GI50 in the assay with NCI-H226, in the assay on NCI-H23 and with SNB-19 was > 100 µM (inactive) in each case.

Take `c1ccc(C2OC3(CCC[C@H]4C[C@H]43)O[C@H]2c2ccccc2)cc1` (some centres not stated): the GI50 is 24.2 µM (inactive) with LOX IMVI; 29 µM (inactive) in the assay on KM12; 43.9 µM (inactive) in the assay on M14; 39.9 µM (inactive) in the assay with HCC 2998; 56.1 µM (inactive) in the assay with HOP-62; 24.7 µM (inactive) with COLO 205. Besides, the GI50 in the assay with SF-295 was 46.3 µM (inactive); in the assay with UO-31, 38.7 µM (inactive); in the assay with SK-MEL-5, 25.3 µM (inactive); with CCRF-CEM, 22.2 µM (inactive); with CAKI-1, 29.6 µM (inactive); in the assay on RPMI-8226, 40.3 µM (inactive). The GI50 in the assay with NCI-H226 was 26.2 µM (inactive); in the assay on NCI-H23, 38.6 µM (inactive); with SNB-19, 44.4 µM (inactive).

Regarding `COc1cc(/C=C(\C#N)c2ccccc2)cc(OC)c1`, the GI50 is 22.1 µM (inactive) in the assay on LOX IMVI; 34.8 µM (inactive) with KM12; 33.8 µM (inactive) in the assay on M14; 67.6 µM (inactive) in the assay with HCC 2998; 74.1 µM (inactive) in the assay on HOP-62; 57.4 µM (inactive) in the assay on COLO 205. Besides, the GI50 in the assay with SF-295 is 21.9 µM (inactive); with UO-31, 29.6 µM (inactive); with SK-MEL-5, 41.1 µM (inactive); in the assay on CCRF-CEM, 30.7 µM (inactive); in the assay with SK-MEL-28, 26.1 µM (inactive); with CAKI-1, 51.1 µM (inactive). Besides, the GI50 is 35.6 µM (inactive) in the assay with RPMI-8226, 25.8 µM (inactive) in the assay with NCI-H226, 20.3 µM (inactive) in the assay with NCI-H23 and > 100 µM (inactive) in the assay on SNB-19.

As to `O=C(Nc1ccccc1Cl)c1ccc([N+](=O)[O-])cc1`, the GI50 in the assay on LOX IMVI is > 100 µM (inactive); with KM12, > 100 µM (inactive); in the assay with M14 it was > 100 µM (inactive); in the assay on HCC 2998, > 100 µM (inactive); in the assay with HOP-62, 47.4 µM (inactive); with COLO 205 it was > 100 µM (inactive). In addition, the GI50 in the assay with SF-295 is 46.7 µM (inactive); with UO-31, > 100 µM (inactive); with SK-MEL-5 it was > 100 µM (inactive); with CCRF-CEM it was > 100 µM (inactive); in the assay on SK-MEL-28 it was > 100 µM (inactive); with CAKI-1, > 100 µM (inactive). In addition, the GI50 was > 100 µM (inactive) in the assay on RPMI-8226, > 100 µM (inactive) in the assay on NCI-H226, > 100 µM (inactive) in the assay with NCI-H23 and 41.2 µM (inactive) in the assay with SNB-19.

For `CC(=O)OCC1OC(n2c(=O)n(-c3ccccc3)c(=O)c3cc(Br)cc(Br)c32)C(OC(C)=O)C(OC(C)=O)C1OC(C)=O` (configuration not stated), the GI50 was > 100 µM (inactive) in the assay with LOX IMVI; > 100 µM (inactive) in the assay with KM12; > 100 µM (inactive) in the assay with M14; > 100 µM (inactive) in the assay on HCC 2998; 88.7 µM (inactive) with HOP-62; > 100 µM (inactive) in the assay with COLO 205. The GI50 in the assay with SF-295 is 12 µM (inactive); with UO-31, > 100 µM (inactive); in the assay with SK-MEL-5, > 100 µM (inactive); in the assay on CCRF-CEM, > 100 µM (inactive); in the assay on SK-MEL-28, > 100 µM (inactive); in the assay with CAKI-1, 2.56 µM (inactive). Moreover, the GI50 with RPMI-8226, in the assay on NCI-H226, in the assay with NCI-H23 and in the assay on SNB-19 was > 100 µM (inactive) throughout.

For `Cc1ccccc1C1OC(=O)c2ccc3ccccc3c21` (configuration not stated), the GI50 in the assay on LOX IMVI was 2.57 µM (inactive); in the assay with KM12, 5.6 µM (inactive); in the assay on M14 it was 2.97 µM (inactive); with HCC 2998 it was 4 µM (inactive); with HOP-62, 0.442 µM (active); in the assay on COLO 205 it was 1.37 µM (inactive). The GI50 with SF-295 is 7.35 µM (inactive); in the assay on UO-31, 2.77 µM (inactive); in the assay on SK-MEL-5, 3.53 µM (inactive); in the assay with CCRF-CEM, 4.21 µM (inactive); with SK-MEL-28, 3.43 µM (inactive); with CAKI-1, 6.21 µM (inactive). Moreover, the GI50 in the assay on RPMI-8226 is 1.61 µM (inactive); in the assay with NCI-H226 it was 4.75 µM (inactive); with NCI-H23 it was 5.71 µM (inactive); in the assay on SNB-19, 8.87 µM (inactive).

Consider `CSc1ccc(N2C(=O)C3c4[nH]c5ccccc5c4C4CCC(C(C)(C)C)CC4C3C2=O)cc1` (configuration not stated), for which the GI50 with LOX IMVI was 14 µM (inactive); in the assay with KM12, 28.4 µM (inactive); in the assay on M14 it was 27.5 µM (inactive); in the assay on HCC 2998 it was 15.6 µM (inactive); in the assay with HOP-62, 12.2 µM (inactive); with COLO 205, 10 µM (inactive). Also, the GI50 was 14.3 µM (inactive) in the assay on SF-295; 16.5 µM (inactive) in the assay with UO-31; 25.8 µM (inactive) in the assay with SK-MEL-5; 8.49 µM (inactive) in the assay on CCRF-CEM; 13.8 µM (inactive) with SK-MEL-28; 19.9 µM (inactive) in the assay with CAKI-1. For the same compound, the GI50 with RPMI-8226 was 28.4 µM (inactive); in the assay on NCI-H226, 19.1 µM (inactive); with NCI-H23, 15.5 µM (inactive); with SNB-19, 19.1 µM (inactive).

`Cc1cc(C)c2c(c1)N[S@@](=O)S2`: the GI50 in the assay on LOX IMVI is 15.3 µM (inactive); in the assay with KM12 it was 24 µM (inactive); in the assay with M14, 17 µM (inactive); in the assay with HCC 2998, 39.6 µM (inactive); with HOP-62, 57.9 µM (inactive); with COLO 205 it was 18.2 µM (inactive). In addition, the GI50 in the assay on SF-295 was 39.7 µM (inactive); with UO-31, 23 µM (inactive); in the assay with SK-MEL-5, 29.9 µM (inactive); with CCRF-CEM, 21.9 µM (inactive); in the assay with SK-MEL-28 it was 28 µM (inactive); with CAKI-1, 25.2 µM (inactive). In addition, the GI50 was 34.7 µM (inactive) with RPMI-8226, 19.2 µM (inactive) with NCI-H226, 35.4 µM (inactive) in the assay on NCI-H23 and 30.8 µM (inactive) in the assay with SNB-19.

In the case of `Cc1ccc(Nc2cccc3c2C(=O)c2cccc(Nc4ccc(C)cc4S(=O)(=O)O)c2C3=O)c(S(=O)(=O)O)c1`, the GI50 with KM12, with M14, in the assay on HCC 2998, in the assay on HOP-62, in the assay with COLO 205 and with UO-31 was > 100 µM (inactive) throughout. Besides, the GI50 in the assay with SK-MEL-5, with CCRF-CEM, with SK-MEL-28, in the assay on CAKI-1, in the assay on RPMI-8226 and in the assay on NCI-H226 was > 100 µM (inactive) in each case. Further, the GI50 in the assay with SNB-19 is > 100 µM (inactive).

As for `CN/N=C(/Cc1occc(=O)c1O)C(=O)Nc1ccc(C)c(C)c1`, the GI50 with LOX IMVI, with KM12, in the assay on M14, in the assay with HCC 2998, with HOP-62 and with COLO 205 was > 100 µM (inactive) throughout. Further, the GI50 in the assay on SF-295, in the assay on UO-31, in the assay on SK-MEL-5, with CCRF-CEM, in the assay on SK-MEL-28 and in the assay with CAKI-1 was > 100 µM (inactive) in each case. The GI50 in the assay with RPMI-8226, with NCI-H226, in the assay with NCI-H23 and in the assay on SNB-19 was > 100 µM (inactive) in each case.

Consider `C/C(CC(=O)Nc1ccc(NC(=O)/C(C)=N/NS(=O)(=O)c2ccc(C)cc2)cc1)=N\NS(=O)(=O)c1ccc(C)cc1`, for which the GI50 in the assay with LOX IMVI, in the assay with KM12, in the assay with M14, with HCC 2998, in the assay on HOP-62 and with COLO 205 was > 100 µM (inactive) each time. Also, the GI50 in the assay on SF-295 was > 100 µM (inactive); in the assay with UO-31, > 100 µM (inactive); with SK-MEL-5, > 100 µM (inactive); in the assay on CCRF-CEM, > 10 µM (inactive); in the assay on SK-MEL-28, > 100 µM (inactive); in the assay with CAKI-1, > 100 µM (inactive). Besides, the GI50 in the assay on RPMI-8226, in the assay with NCI-H226 and with NCI-H23 was > 100 µM (inactive) in each case.

On to `Nc1c2ccccc2nc2nccnc12`, for which the GI50 with LOX IMVI, in the assay on KM12, in the assay on M14, in the assay on HCC 2998, in the assay with HOP-62 and in the assay with COLO 205 was > 100 µM (inactive) each time. Besides, the GI50 in the assay on SF-295, in the assay on UO-31, in the assay with SK-MEL-5, in the assay on CCRF-CEM, in the assay with SK-MEL-28 and in the assay with CAKI-1 was > 100 µM (inactive) in each case. In addition, the GI50 with RPMI-8226, in the assay with NCI-H226, with NCI-H23 and in the assay on SNB-19 was > 100 µM (inactive) in each case.
